For one data set, the target named is Nav 1.7 (Homo sapiens (Human), UniProt Q15858). The data set can be described thus: Inhibition of sodium channels, Red Membrane Potential Dye FLIPR assay, veratridine depolarization. The class given is cell-based. The following applies: HEK-293 cells overexpressing the channel; read-out: Nav1.7 IC50.
The target of another data set is Nav 1.5 (Homo sapiens (Human), UniProt Q14524). The data set is described as above. To be noted: HEK-293 cells overexpressing the channel. It counts as cell-based.
Where [1] appears, read: read-out: Nav1.5 IC50 (bound given in μM).

Usually IC50 stands for the concentration that gives 50% inhibition.

Where two headings read alike, the source gives them in different places. A value given as a limit tells only on which side of the number the result lay.

Sequence of Nav 1.5 (Q14524 whole entry): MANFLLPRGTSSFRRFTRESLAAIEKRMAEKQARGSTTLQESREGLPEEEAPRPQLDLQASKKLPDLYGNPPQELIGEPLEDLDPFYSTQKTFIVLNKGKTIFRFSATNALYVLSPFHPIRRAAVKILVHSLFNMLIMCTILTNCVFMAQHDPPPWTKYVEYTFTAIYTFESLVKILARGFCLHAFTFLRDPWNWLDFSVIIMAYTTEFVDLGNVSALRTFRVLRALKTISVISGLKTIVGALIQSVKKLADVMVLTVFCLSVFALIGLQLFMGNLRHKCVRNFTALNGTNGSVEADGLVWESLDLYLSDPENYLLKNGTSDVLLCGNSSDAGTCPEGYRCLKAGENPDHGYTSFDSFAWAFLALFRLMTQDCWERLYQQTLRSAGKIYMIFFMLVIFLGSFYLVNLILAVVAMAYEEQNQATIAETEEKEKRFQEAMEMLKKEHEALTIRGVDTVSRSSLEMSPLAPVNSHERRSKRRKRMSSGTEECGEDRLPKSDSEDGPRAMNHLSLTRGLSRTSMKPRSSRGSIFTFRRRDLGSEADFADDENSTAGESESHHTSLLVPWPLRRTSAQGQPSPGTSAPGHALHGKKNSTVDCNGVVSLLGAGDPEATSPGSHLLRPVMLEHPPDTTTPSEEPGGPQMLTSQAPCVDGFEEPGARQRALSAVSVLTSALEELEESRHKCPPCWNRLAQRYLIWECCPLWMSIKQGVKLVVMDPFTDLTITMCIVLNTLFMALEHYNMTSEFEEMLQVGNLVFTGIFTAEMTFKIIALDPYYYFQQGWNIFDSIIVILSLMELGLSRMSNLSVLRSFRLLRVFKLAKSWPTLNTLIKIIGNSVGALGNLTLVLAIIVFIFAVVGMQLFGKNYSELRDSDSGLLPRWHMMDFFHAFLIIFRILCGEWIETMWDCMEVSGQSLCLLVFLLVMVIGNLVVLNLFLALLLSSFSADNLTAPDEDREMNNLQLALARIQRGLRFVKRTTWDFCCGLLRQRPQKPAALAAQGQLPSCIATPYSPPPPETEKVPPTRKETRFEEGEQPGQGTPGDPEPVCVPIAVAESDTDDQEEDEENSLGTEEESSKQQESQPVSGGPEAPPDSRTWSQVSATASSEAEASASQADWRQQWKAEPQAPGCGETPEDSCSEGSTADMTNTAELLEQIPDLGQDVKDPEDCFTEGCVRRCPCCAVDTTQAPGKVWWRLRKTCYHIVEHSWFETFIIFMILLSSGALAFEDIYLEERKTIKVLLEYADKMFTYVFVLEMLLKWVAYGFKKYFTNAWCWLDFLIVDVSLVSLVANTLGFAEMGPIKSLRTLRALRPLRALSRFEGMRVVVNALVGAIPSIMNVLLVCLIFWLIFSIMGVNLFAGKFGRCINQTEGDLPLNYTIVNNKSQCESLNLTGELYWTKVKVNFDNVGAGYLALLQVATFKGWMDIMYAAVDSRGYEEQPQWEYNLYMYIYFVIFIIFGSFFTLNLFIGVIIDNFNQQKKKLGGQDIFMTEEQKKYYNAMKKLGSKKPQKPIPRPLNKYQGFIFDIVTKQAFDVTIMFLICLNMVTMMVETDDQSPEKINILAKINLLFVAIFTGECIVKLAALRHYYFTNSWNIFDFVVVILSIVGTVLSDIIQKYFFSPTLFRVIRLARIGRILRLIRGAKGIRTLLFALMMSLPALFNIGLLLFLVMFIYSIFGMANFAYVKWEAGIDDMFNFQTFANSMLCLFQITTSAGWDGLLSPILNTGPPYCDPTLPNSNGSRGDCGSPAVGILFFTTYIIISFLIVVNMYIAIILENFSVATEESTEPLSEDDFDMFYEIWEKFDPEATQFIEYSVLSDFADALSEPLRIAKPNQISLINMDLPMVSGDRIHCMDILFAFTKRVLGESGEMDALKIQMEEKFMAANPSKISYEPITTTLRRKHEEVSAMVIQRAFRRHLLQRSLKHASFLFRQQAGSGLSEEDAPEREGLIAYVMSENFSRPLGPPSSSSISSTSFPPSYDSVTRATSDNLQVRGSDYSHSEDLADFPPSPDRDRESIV
Sequence of Nav 1.7 (Q15858 whole entry): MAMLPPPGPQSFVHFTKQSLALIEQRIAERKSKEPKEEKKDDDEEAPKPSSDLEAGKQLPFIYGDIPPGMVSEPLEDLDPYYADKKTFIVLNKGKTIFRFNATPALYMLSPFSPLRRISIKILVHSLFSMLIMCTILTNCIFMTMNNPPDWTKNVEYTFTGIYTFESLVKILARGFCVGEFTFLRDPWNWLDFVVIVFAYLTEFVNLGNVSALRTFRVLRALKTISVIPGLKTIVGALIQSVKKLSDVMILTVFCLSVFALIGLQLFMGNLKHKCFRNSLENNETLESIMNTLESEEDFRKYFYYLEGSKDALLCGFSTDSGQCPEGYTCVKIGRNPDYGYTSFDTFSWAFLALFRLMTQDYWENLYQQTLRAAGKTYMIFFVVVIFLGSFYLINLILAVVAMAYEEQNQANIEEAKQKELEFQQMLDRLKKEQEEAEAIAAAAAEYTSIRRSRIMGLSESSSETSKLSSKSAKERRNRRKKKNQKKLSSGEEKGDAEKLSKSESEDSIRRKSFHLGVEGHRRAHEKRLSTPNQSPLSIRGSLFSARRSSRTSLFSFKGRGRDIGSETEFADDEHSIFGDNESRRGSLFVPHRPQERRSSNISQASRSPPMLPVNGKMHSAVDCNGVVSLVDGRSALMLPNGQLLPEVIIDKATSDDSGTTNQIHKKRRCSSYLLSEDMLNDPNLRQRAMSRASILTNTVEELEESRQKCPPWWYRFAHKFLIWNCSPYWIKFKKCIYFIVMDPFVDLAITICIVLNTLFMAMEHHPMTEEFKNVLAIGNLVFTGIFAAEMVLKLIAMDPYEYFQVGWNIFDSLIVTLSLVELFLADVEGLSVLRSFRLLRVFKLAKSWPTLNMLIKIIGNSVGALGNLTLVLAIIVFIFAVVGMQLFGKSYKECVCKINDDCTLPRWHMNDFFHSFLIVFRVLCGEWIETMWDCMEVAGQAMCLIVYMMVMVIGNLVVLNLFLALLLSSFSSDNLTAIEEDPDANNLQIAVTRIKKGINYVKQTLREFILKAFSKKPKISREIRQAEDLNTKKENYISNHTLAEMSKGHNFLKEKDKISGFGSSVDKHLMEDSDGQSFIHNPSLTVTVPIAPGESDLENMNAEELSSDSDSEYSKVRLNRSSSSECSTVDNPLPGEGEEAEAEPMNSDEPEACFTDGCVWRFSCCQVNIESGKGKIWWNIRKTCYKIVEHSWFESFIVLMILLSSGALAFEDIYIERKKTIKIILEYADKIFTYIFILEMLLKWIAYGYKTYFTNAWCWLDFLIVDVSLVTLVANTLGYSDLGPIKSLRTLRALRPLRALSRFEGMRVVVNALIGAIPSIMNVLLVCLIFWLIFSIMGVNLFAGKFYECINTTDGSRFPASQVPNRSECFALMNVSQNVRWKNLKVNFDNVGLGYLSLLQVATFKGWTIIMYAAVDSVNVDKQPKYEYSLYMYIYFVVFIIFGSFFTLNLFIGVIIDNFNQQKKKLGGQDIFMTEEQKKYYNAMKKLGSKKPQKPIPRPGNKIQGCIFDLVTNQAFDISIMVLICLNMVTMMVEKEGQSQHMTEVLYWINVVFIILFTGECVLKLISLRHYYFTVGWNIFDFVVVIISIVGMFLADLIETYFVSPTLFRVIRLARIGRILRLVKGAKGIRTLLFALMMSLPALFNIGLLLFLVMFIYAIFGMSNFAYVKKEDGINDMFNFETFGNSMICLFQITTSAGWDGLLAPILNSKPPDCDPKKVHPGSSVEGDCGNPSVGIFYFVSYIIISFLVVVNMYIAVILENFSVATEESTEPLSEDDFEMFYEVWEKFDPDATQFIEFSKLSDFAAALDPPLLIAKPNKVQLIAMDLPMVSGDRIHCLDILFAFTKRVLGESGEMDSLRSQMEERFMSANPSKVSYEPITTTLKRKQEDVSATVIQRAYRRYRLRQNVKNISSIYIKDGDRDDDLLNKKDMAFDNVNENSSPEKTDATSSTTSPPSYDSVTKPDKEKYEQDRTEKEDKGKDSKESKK

With `COCCCOc1cc(C(F)(F)F)ccc1[C@H]1CCOc2cc(S(=O)(=O)Nc3ncccn3)ccc21` [Example 131, (S&R)-4-(2-(3-methoxypropoxy)-4-(trifluoromethyl)phenyl)-N-(pyrimidin-2-yl)chroman-7-sulfonamide], the IC50 on Nav 1.7 is 53 nM. Besides, the “Nav1.5 % inhibition @ 10 μM” value on Nav 1.5 is 66%.
As for `COCCCc1cc(C(F)(F)F)ccc1[C@@H]1CCOc2cc(S(=O)(=O)Nc3ncccn3)ccc21` [Example 140, (S&R)-4-(2-(3-methoxypropyl)-4-(trifluoromethyl)phenyl)-N-(pyrimidin-2-yl)chroman-7-sulfonamide], the IC50 was 1740 nM at Nav 1.7 and over 10 µM on Nav 1.5 (setting [1]).
`COCCCc1cc(C(F)(F)F)ccc1[C@H]1CCOc2cc(S(=O)(=O)Nc3ncccn3)ccc21` [Example 141, (S&R)-4-(2-(3-methoxypropyl)-4-(trifluoromethyl)phenyl)-N-(pyrimidin-2-yl)chroman-7-sulfonamide]: the 50% inhibitory concentration (IC50) on Nav 1.7 amounted to 69 nM. Further, the “Nav1.5 % inhibition @ 10 μM” value on Nav 1.5 is 65%.
Consider `COCCCCc1cc(C(F)(F)F)ccc1[C@@H]1CCOc2cc(S(=O)(=O)Nc3ncccn3)ccc21` [Example 146, (S&R)-4-(2-(4-methoxybutyl)-4-(trifluoromethyl)phenyl)-N-(pyrimidin-2-yl)chroman-7-sulfonamide], for which the IC50 at Nav 1.7 was 790 nM; at Nav 1.5 (setting [1]), over 10 µM.
Turning to `COCCCCc1cc(C(F)(F)F)ccc1[C@H]1CCOc2cc(S(=O)(=O)Nc3ncccn3)ccc21` [Example 147, (S&R)-4-(2-(4-methoxybutyl)-4-(trifluoromethyl)phenyl)-N-(pyrimidin-2-yl)chroman-7-sulfonamide], the half-maximal inhibitory concentration (IC50) on Nav 1.7 turned out to be 199 nM. At Nav 1.5, the “Nav1.5 % inhibition @ 10 μM” value was found to be 60%.
For `COCCCCc1cc(C(F)(F)F)ccc1[C@@H]1CCOc2cc(S(=O)(=O)Nc3cccc(F)n3)ccc21` [Example 151, (S&R)—N-(6-fluoropyridin-2-yl)-4-(2-(4-methoxybutyl)-4-(trifluoromethyl)phenyl)chroman-7-sulfonamide] the same measures were 390 nM and 57%.
For `COCCCCc1cc(C(F)(F)F)ccc1[C@H]1CCOc2cc(S(=O)(=O)Nc3cccc(F)n3)ccc21` [Example 152, (S&R)—N-(6-fluoropyridin-2-yl)-4-(2-(4-methoxybutyl)-4-(trifluoromethyl)phenyl)chroman-7-sulfonamide] the same measures were 40 nM and 67%.
For the molecule `O=S(=O)(Nc1ncccn1)c1ccc2c(c1)OCC[C@H]2c1ccc(C(F)(F)F)cc1OC1CCOCC1` [Example-168, (R&S)—N-(pyrimidin-2-yl)-4-(2-((tetrahydro-2H-pyran-4-yl)oxy)-4-(trifluoromethyl)phenyl)chroman-7-sulfonamide], the results for the IC50 at Nav 1.7 and on Nav 1.5 (setting [1]) were 3900 nM and over 10 µM, respectively.
In the case of `O=S(=O)(Nc1ncccn1)c1ccc2c(c1)OCC[C@@H]2c1ccc(C(F)(F)F)cc1OC1CCOCC1` [Example-169, (R&S)—N-(pyrimidin-2-yl)-4-(2-((tetrahydro-2H-pyran-4-yl)oxy)-4-(trifluoromethyl)phenyl)chroman-7-sulfonamide], the IC50 at Nav 1.7 was 43 nM; at Nav 1.5 (read-out: Nav1.5 IC50), 4.89 µM.
For the molecule `O=S(=O)(Nc1ncc(F)cn1)c1ccc2c(c1)OCC[C@H]2c1ccc(C(F)(F)F)cc1OC1CCOCC1` [Example-170, (R&S)—N-(5-fluoropyrimidin-2-yl)-4-(2-((tetrahydro-2H-pyran-4-yl)oxy)-4-(trifluoromethyl)phenyl)chroman-7-sulfonamide], the IC50 is 1090 nM on Nav 1.7 and over 10 µM on Nav 1.5 (setting [1]).
Regarding `O=S(=O)(Nc1ncc(F)cn1)c1ccc2c(c1)OCC[C@@H]2c1ccc(C(F)(F)F)cc1OC1CCOCC1` [Example-171, (R&S)—N-(5-fluoropyrimidin-2-yl)-4-(2-((tetrahydro-2H-pyran-4-yl)oxy)-4-(trifluoromethyl)phenyl)chroman-7-sulfonamide], on Nav 1.7, the IC50 was determined as 125 nM. Besides, on Nav 1.5, the “Nav1.5 % inhibition @ 10 μM” value is listed as 53%.
As for `O=S(=O)(Nc1ccncn1)c1ccc2c(c1)OCC[C@H]2c1ccc(C(F)(F)F)cc1OC1CCOCC1` [Example-172, (R&S)—N-(pyrimidin-4-yl)-4-(2-((tetrahydro-2H-pyran-4-yl)oxy)-4-(trifluoromethyl)phenyl)chroman-7-sulfonamide], the IC50 on Nav 1.7 was 2740 nM; at Nav 1.5 (setting [1]), over 10 µM.
As for `O=S(=O)(Nc1ccncn1)c1ccc2c(c1)OCC[C@@H]2c1ccc(C(F)(F)F)cc1OC1CCOCC1` [Example-173, (R&S)—N-(pyrimidin-4-yl)-4-(2-((tetrahydro-2H-pyran-4-yl)oxy)-4-(trifluoromethyl)phenyl)chroman-7-sulfonamide], at Nav 1.7, the IC50 was 12 nM. The “Nav1.5 % inhibition @ 10 μM” value at Nav 1.5 is on record as 63%.
As to `O=S(=O)(Nc1cccnn1)c1ccc2c(c1)OCC[C@H]2c1ccc(C(F)(F)F)cc1OC1CCOCC1` [Example-174, (R&S)—N-(pyridazin-3-yl)-4-(2-((tetrahydro-2H-pyran-4-yl)oxy)-4-(trifluoromethyl)phenyl)chroman-7-sulfonamide], the IC50 is 2460 nM on Nav 1.7 and over 10 µM on Nav 1.5 (setting [1]).
`O=S(=O)(Nc1cccnn1)c1ccc2c(c1)OCC[C@@H]2c1ccc(C(F)(F)F)cc1OC1CCOCC1` [Example-175, (R&S)—N-(pyridazin-3-yl)-4-(2-((tetrahydro-2H-pyran-4-yl)oxy)-4-(trifluoromethyl)phenyl)chroman-7-sulfonamide]: the values for the half-inhibitory concentration (IC50) at Nav 1.7 and on Nav 1.5 (read-out: Nav1.5 IC50) were 248 nM and 1.69 µM, respectively.
Regarding `O=S(=O)(Nc1cccc(F)n1)c1ccc2c(c1)OCC[C@H]2c1ccc(C(F)(F)F)cc1OC1CCOCC1` [Example-176, (R&S)—N-(6-fluoropyridin-2-yl)-4-(2-((tetrahydro-2H-pyran-4-yl)oxy)-4-(trifluoromethyl)phenyl)chroman-7-sulfonamide], on Nav 1.7, the IC50 came out at 1310 nM. In addition, the “Nav1.5 % inhibition @ 10 μM” value at Nav 1.5 came to 57%.
Take `O=S(=O)(Nc1cccc(F)n1)c1ccc2c(c1)OCC[C@@H]2c1ccc(C(F)(F)F)cc1OC1CCOCC1` [Example-177, (R&S)—N-(6-fluoropyridin-2-yl)-4-(2-((tetrahydro-2H-pyran-4-yl)oxy)-4-(trifluoromethyl)phenyl)chroman-7-sulfonamide]: the concentration for half-maximal inhibition (IC50) was 11 nM at Nav 1.7 and 0.232 µM on Nav 1.5 (read-out: Nav1.5 IC50).
Take `O=S(=O)(Nc1ncccn1)c1ccc2c(c1)OCCC2c1ccc(C(F)(F)F)cc1O[C@H]1CCOC1` (stereo partly drawn) [Example-178, (R&S)—N-(pyrimidin-2-yl)-4-(2-(((S)-tetrahydrofuran-3-yl)oxy)-4-(trifluoromethyl)phenyl)chroman-7-sulfonamide]: the IC50 on Nav 1.7 is 149 nM; on Nav 1.5 (setting [1]), over 10 µM.
In the case of `O=S(=O)(Nc1ncccn1)c1ccc2c(c1)OCCC2c1ccc(C(F)(F)F)cc1O[C@H]1CCOC1` (stereo partly drawn) [Example-179, (R&S)—N-(pyrimidin-2-yl)-4-(2-(((S)-tetrahydrofuran-3-yl)oxy)-4-(trifluoromethyl)phenyl)chroman-7-sulfonamide], the concentration for half-maximal inhibition (IC50) at Nav 1.7 came out at 38 nM. The “Nav1.5 % inhibition @ 10 μM” value at Nav 1.5 is on record as 64%.
Consider `O=S(=O)(Nc1cccc(F)n1)c1ccc2c(c1)OCCC2c1ccc(C(F)(F)F)cc1O[C@H]1CCOC1` (stereo partly drawn) [Example-180, (R&S)—N-(6-fluoropyridin-2-yl)-4-(2-(((S)-tetrahydrofuran-3-yl)oxy)-4-(trifluoromethyl)phenyl)chroman-7-sulfonamide], for which the 50% inhibitory concentration (IC50) on Nav 1.7 was 831 nM; on Nav 1.5 (setting [1]), over 10 µM.
Take `O=S(=O)(Nc1cccc(F)n1)c1ccc2c(c1)OCCC2c1ccc(C(F)(F)F)cc1O[C@H]1CCOC1` (stereo partly drawn) [Example-181, (R&S)—N-(6-fluoropyridin-2-yl)-4-(2-(((S)-tetrahydrofuran-3-yl)oxy)-4-(trifluoromethyl)phenyl)chroman-7-sulfonamide]: at Nav 1.7, the IC50 came to 0.9 nM. In addition, the “Nav1.5 % inhibition @ 10 μM” value on Nav 1.5 is on record as 43%.
Turning to `O=S(=O)(Nc1ncccn1)c1ccc2c(c1)OCCC2c1ccc(C(F)(F)F)cc1O[C@@H]1CCOC1` (stereo partly drawn) [Example-185, (S&R)—N-(pyrimidin-2-yl)-4-(2-(((R)-tetrahydrofuran-3-yl)oxy)-4-(trifluoromethyl)phenyl)chroman-7-sulfonamide], the IC50 on Nav 1.7 was 1020 nM; on Nav 1.5 (setting [1]), over 10 µM.
For the molecule `O=S(=O)(Nc1ncccn1)c1ccc2c(c1)OCCC2c1ccc(C(F)(F)F)cc1O[C@@H]1CCOC1` (stereo partly drawn) [Example-186, (S&R)—N-(pyrimidin-2-yl)-4-(2-(((R)-tetrahydrofuran-3-yl)oxy)-4-(trifluoromethyl)phenyl)chroman-7-sulfonamide], on Nav 1.7, the half-inhibitory concentration (IC50) stood at 83 nM. On Nav 1.5, the “Nav1.5 % inhibition @ 10 μM” value was determined as 46%.
With `O=C(O)c1ccc(-c2cc(C(F)(F)F)ccc2[C@H]2CCOc3cc(S(=O)(=O)Nc4ncccn4)ccc32)cc1` [Example-188, (S&R)-2′-(7-(N-(pyrimidin-2-yl)sulfamoyl)chroman-4-yl)-5′-(trifluoromethyl)-[1,1′-biphenyl]-4-carboxylic acid], the IC50 was 67 nM at Nav 1.7 and over 10 µM at Nav 1.5 (setting [1]).
Taken in the same sequence, the figures for `O=C(O)c1ccc(-c2cc(C(F)(F)F)ccc2[C@@H]2CCOc3cc(S(=O)(=O)Nc4ncc(F)cn4)ccc32)cc1` [Example-189, (S&R)-2′-(7-(N-(5-fluoropyrimidin-2-yl)sulfamoyl)chroman-4-yl)-5′-(trifluoromethyl)-[1,1′-biphenyl]-4-carboxylic acid] were 1810 nM and over 10 µM.
Turning to `O=S(=O)(Nc1cccnn1)c1ccc2c(c1)OCC[C@H]2c1ccc(C(F)(F)F)cc1-c1ccc(F)cn1` [Example-199, (S&R)-4-(2-(5-fluoropyridin-2-yl)-4-(trifluoromethyl)phenyl)-N-(pyridazin-3-yl)chroman-7-sulfonamide], the half-inhibitory concentration (IC50) at Nav 1.7 is 355 nM; at Nav 1.5 (setting [1]) it was over 10 µM.
Taken in the same sequence, the figures for `O=S(=O)(Nc1cccnn1)c1ccc2c(c1)OCC[C@@H]2c1ccc(C(F)(F)F)cc1-c1ccc(F)cn1` [Example-200, (S&R)-4-(2-(5-fluoropyridin-2-yl)-4-(trifluoromethyl)phenyl)-N-(pyridazin-3-yl)chroman-7-sulfonamide] were 0.5 nM and over 10 µM.

The values above are taken from patent publication US10239869B2, “Sulfonamide compounds as voltage-gated sodium channel modulators” (LUPIN LIMITED, priority 2015, dated 2019).
